The values below are quoted from earlier work in patent US11005050B2, “Metal complexes” (Merck Patent GmbH, priority 2014, dated 2021).

For this series the following is noted: prior-art statement; for example in aromatic hydrocarbons or chlorobenzene.

Consider `c1cnc2c(c1)ccc1ccc[c]([Ir]([c]3cccc4ccc5cccnc5c34)[c]3cccc4ccc5cccnc5c34)c12` [tris(benzo[h]quinoline)iridium(III)], for which the “solubility in common organic solvents” value is listed as “virtually insoluble”.
